Assay results from patent US12678433B2, “Compounds for treatment of hemolysis-and inflammasome-associated diseases” (New York Blood Center, Inc., priority 2020, dated 2026).
Like-named read-outs stand apart in the source and are kept apart here.

How the values were obtained:
[1] = tested on: purified naïve B cells from healthy donors
Experimental: Hemin and RBC lysate preparation. Hemin, dissolved in dimethyl sulfoxide (DMSO), stock concentration 10 mM, was diluted to 100 μM with serum-free RPMI 1640 culture medium just prior to addition to B cell cultures. For short-term experiments lasting less than 24 hr, a final concentration of 10 μM hemin was used whereas for longer-term culture up to 7 days, 2.5-5 μM final heme concentration was used. RBC lysates were freshly prepared (containing ~80 g/L hemoglobin) for same day use. Briefly, 4 ml whole blood from healthy donors was passed through Acrodisc WBC syringe filter (Pall Corporation) to remove white blood cells followed by two washes with Dulbecco's Phosphate Buffered Saline (D-PBS) (200×g, 10 min at room temperature with no brake) for removal of platelets. The RBC pellet was lysed with 3 times volume of distilled water for 10 min at 37° C. Cellular debris was pelleted by centrifugation at 4000×g for 10 min at 4° C. The RBC lysate was transferred to a new tube and 1/9 volume of 10×D-PBS added.
Cell isolation and culture. Peripheral blood mononuclear cells (PBMCs) were prepared by Ficoll (GE Healthcare) density gradient centrifugation from healthy donor leukopak products as well as from sickle peripheral blood apheresis waste bags. Human naïve and memory B cells were isolated from PBMCs using a human memory B Cell Isolation Kit (Miltenyi Biotec) by collecting CD27− B cells (naïve B cells) and CD27+ B cell (memory B cells) separately. […] RPMI 1640 culture medium was used for all cell culture experiments (supplemented with 10% FBS, 100-unit penicillin-streptomycin, […], 1 mM sodium pyruvate, all from Thermo Fisher Scientific). Purified B cells were stained with CFSE (Cat #: C34554, Thermo Fisher Scientific) and cultured in U-bottom 96 well plates (2.5×10^5/well/200 μl culture medium) in the presence of goat anti-human IgA+IgG+IgM (H+L) F(ab′)2 fragment (2.5 μg/ml, Jackson ImmunoResearch), CD154 (10 ng/ml, R&D Systems) and CpG (ODN 7909, 1 nM, Cat #: tlrl-2006-1) without IL-2 for analysis of only CD38+ plasmablast differentiation or with IL-2 (5 ng/ml, Cat #:1081-IL-020, R&D Systems) in experiments to detect CD27^hiBlimp-1+ plasma cells. In addition, heme and various inhibitors were added to the cultures at the start point and incubated for 7 days.
Cultured cells: stimulated B cells were transferred into U bottom 96 well plate and washed with 200 μl MACS buffer (D-PBS containing 0.5% BSA and 2 mM EDTA) at 300×g for 5 min at 4° C. After one wash, cells were stained for surface expression of CD19, CD38, CD27 using 25 μl staining buffer (anti-CD19, CD38, CD27 antibodies, diluted 200 fold with MACS buffer) for 30 min at 4° C. After one wash with 200 μl MACS buffer, cells were resuspended in 100 μl D-PBS and 50 μl Fixable Viability Dye eFluor™ 780 (1000 fold diluted with D-PBS, Thermo Fisher Scientific) was added for dead cell detection for 5 min at room temperature. Cells were washed one time with MACS buffer and 100 μl D-DPS was added just before flow cytometric analysis (LSRFortessa flow cytometer, BD Bioscience). For intracellular staining of IgG, Blimp-1 and HO-1, samples were first washed with 200 μl MACS buffer before addition of 150 μl Fixation/Permeabilization buffer (Thermo Fisher Scientific) for 45 min at 4° C. After fixation, samples were washed twice with 1× Permeabilization buffer (Thermo Fisher Scientific) and stained with 25 μl intracellular staining buffer (anti-human IgG, DOCK8, Blimp-1, HO-1 antibodies, diluted 200 fold with 1× Permeabilization buffer) for 45 min at 4° C., after which the cells were washed twice with Permeabilization buffer and 100p D-DPS was added prior to flow cytometric analysis.

[2] = tested on: DOCK8/STAT3 signaling pathway; assay: Protein phosphorylation analysis by intracellular flow cytometry in stimulated B cells; format: cell-based, human; details: heme 10 μM
Experimental: Protein phosphorylation analysis: B cells were short-term (maximum overnight) stimulated using the same B cell activation cocktail as above in the absence or presence of hemin (10 μM) after which B cells were fixed with the same volume pre-warmed Phosflow Fix buffer I (BD Bioscience) for 10 min at 37° C. After that, cells were washed twice with MACS buffer (400×g, 4° C., 5 min) followed by addition of 0.4 ml Perm buffer Ill (pre-chilled in −20° C., BD Bioscience) for 30 min on ice. After two washes with MACS buffer, samples were stained with staining buffer (anti-Pyk2(pY402), SYK(pY319), SRC(pY418), and STAT3(pY705), 100 fold diluted with MACS buffer) at 4° C. for 45 min, washed and analyzed by flow cytometry.
It has been shown that plasma free-heme can directly bind to DOCK8 protein and inhibit monocyte/macrophage phagocytosis through the DOCK8-Cdc42 signaling pathway. DOCK8/STAT3 signaling pathway activation, leading to phosphorylation of Pky2, SYK, SRC, and STAT3, has also been reported to be critical for B cell activation, although the effect of heme on this activation pathway was not examined. To test whether DOCK8/STAT3 signaling is inhibited by cell-free heme during B cell activation, we analyzed the phosphorylation of Pyk2, SYK, SRC, and STAT3 following short-term stimulation in the presence or absence of heme (10 μM) by intracellular flow cytometric analysis. […]

HO-1 = HO-1 expression in stimulated B cells; format: cell-based, human; details: stimulated B cells treated with heme 2.5 or 5 μM
From the text: HO-1 is a key enzyme for heme degradation with multiple biologic activities attributed to its enzymatic byproducts. We analyzed HO-1 expression levels in human B cells before and after stimulation with our polyclonal B cell activation cocktail. […] We also found higher HO-1 levels in DOCK8^hi plasma cells (FIG. 8B).

[3] = tested on: splenic B cells from C57BL/6J mice; assay: Mouse B cell differentiation in vitro; format: cell-based; details: 7 days, hemin 2.5 or 5 μM, different doses of quinine
Bach2 = Bach2 levels in human B cells; format: cell-based; details: in the presence of heme
[4] = HD naïve B cells, 7 days, highest heme concentration tested (5 μM)

C=CC1=C(C)c2cc3[n-]c(cc4[n-]c(cc5nc(cc1n2)C(C)=C5C=C)c(C)c4CCC(=O)O)c(CCC(=O)O)c3C.[Fe+2] [heme, iron(III) complex of protoporphyrin IX]
effect on B cell proliferation ([1]; 2.5 μM heme): minor inhibition
effect on differentiation of naïve B cells into plasmablasts ([1]; 2.5 μM heme): robust inhibitory effect
B cell class switch recombination (percent IgG+ B cells) ([1]; 2.5 or 5 μM hemin): not affected
inhibition of B cell proliferation [1, 4]: 6.8%±1.3%
inhibition of plasmablast cell differentiation [1, 4]: 52.7%±8.0%
effect on B cell proliferation ([1]; heme 2.5 μM, SnPPIX 2.5 μM, alone or together): little to no effect
CD27hiBlimp-1+ plasma cell differentiation ([1]; heme 2.5 or 5 μM, 7 days): inhibition
percentage of viable B cells ([1]; highest dose of heme used): high
p-STAT3 ([2]; overnight samples): inhibitory effect
levels of phosphorylated (p)-Pyk2/SYK/SRC/STAT3 ([2]; short-term stimulation (15 min)): significant reduction
HO-1 expression (HO-1): further induced
mouse plasma cell differentiation [3]: did not inhibit
Bach2 levels (Bach2): no significant change
